Results on three molecules are retold here after article PMC11873722 (Cancer Discovery, 2024).

For series [1], the target named is RAF1(RBD):KRAS^G12C(ON) interaction in MIA PaCa-2 cells (Homo sapiens, UniProt P01116, G12C). As to the kind of experiment: RAS:RAF ELISA assay in MIA PaCa-2 cells. The class given is cell-based. The settings on record: 1 µmol/L. A general note: In an ELISA, binding on a coated surface is turned into a signal by an enzyme label.
For a further series, the system named is KRAS^G12C NSCLC. As to conditions: patients with NSCLC with prior KRAS^G12C(OFF)-only inhibitor treatment; cited from earlier work.
The nature of series [2]: Free drug exposure in LUN055 PDX study. The class given is in vivo, mouse.

Chain of RAF1(RBD):KRAS^G12C(ON) interaction in MIA PaCa-2 cells (P01116 1-188 isoform P01116-2 G12C): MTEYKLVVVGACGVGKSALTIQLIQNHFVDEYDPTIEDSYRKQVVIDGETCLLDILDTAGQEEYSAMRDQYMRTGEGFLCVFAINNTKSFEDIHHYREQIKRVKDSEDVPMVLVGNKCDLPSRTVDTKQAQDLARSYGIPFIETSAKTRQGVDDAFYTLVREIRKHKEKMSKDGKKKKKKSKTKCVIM

In the case of `C=CC(=O)N1CCN(c2nc(OC[C@@H]3CCCN3C)nc3c(F)c(-c4nc(N)cc(C)c4C(F)(F)F)c(Cl)cc23)[C@@H](C)C1` [GDC-6036], in series [1], the “time required to achieve maximal activity” value is “more than 60 minutes”.

For the molecule `CCn1c(-c2cccnc2[C@H](C)OC)c2c3cc(ccc31)N1CCO[C@@H](C[C@H](NC(=O)[C@H](C(C)C)N(C)C(=O)C3(F)CCN(C(=O)C#CC(C)(C)N(C)C)CC3)C(=O)N3CCC[C@H](N3)C(=O)OCC(C)(C)C2)C1` [RMC-6291], in the series on KRAS^G12C NSCLC, the objective response rate is 50%.

Turning to `C=CC(=O)N1CCN(c2nc(=O)n(-c3c(C)ccnc3C(C)C)c3nc(-c4c(O)cccc4F)c(F)cc23)[C@@H](C)C1` [Sotorasib], the “free AUC0–24 hours” value in series [2] (100 mg/kg sotorasib) is 1,563 hours × ng/mL. For the same molecule, the “free drug concentration higher compared with BBO-8520” value in series [2] (100 mg/kg sotorasib vs 30 mg/kg BBO-8520) is 20 fold.
